Laboratory results as given in ChEMBL document CHEMBL1121939, “1-beta-D-arabinofuranosyl-1H-imidazo[4,5-c]pyridine (ara-3-deazaadenine)” (J Med Chem, 1982).

Tests used:
Adenosylhomocysteinase = Adenosylhomocysteinase (Homo sapiens, UniProt P23526); experiment: Inhibitory activity against S-adenosyl-homocysteine hydrolase; parameters: species or system herpes simplex virus; settings: read-out: I50
L929 = experiment: Inhibitory activity against herpes simplex virus type 1 grown in L929 cells; format: functional, Mus musculus

Sequence of Adenosylhomocysteinase (P23526 whole entry): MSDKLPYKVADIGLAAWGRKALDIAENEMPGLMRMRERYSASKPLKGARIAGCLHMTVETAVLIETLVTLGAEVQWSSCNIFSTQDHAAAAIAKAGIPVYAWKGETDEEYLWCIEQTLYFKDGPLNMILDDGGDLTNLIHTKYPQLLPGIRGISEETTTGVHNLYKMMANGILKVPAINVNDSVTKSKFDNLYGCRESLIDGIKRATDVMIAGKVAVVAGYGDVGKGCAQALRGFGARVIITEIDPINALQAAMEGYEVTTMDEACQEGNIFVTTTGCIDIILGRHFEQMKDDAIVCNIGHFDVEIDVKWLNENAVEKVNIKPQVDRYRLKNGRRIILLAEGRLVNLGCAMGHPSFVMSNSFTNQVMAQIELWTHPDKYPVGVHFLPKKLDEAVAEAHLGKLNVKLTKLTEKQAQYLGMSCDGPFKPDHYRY

| Structure (SMILES) | IC50 (Adenosylhomocysteinase) | MED50 (L929) | Virus rating (L929) |
| --- | --- | --- | --- |
| Nc1nccc2c1ncn2[C@@H]1O[C@H](CO)[C@@H](O)[C@H]1O | 4 µM |  |  |
| Nc1nccc2c1ncn2[C@@H]1O[C@H](CO)[C@@H](O)[C@@H]1O | 100 µM | 189 µg/mL | 0.8 |
| Nc1ncnc2c1ncn2[C@@H]1O[C@H](CO)[C@@H](O)[C@@H]1O [VIDARABINE] |  | 0.8 µg/mL | 3.7 |
